Assay results from PMC8648872, “A host-directed macrocyclic peptide therapeutic for MDR gram negative bacterial infections” (Scientific Reports, 2021).
Converted amounts (≈) assume the structure as drawn. Where a SMILES comes first, the peptide text is derived from it. Bridges are numbered along the chain shown (N, C = ends).

What was measured:
E. coli BAA-2471 (NDM-1) = assay: microbe, parasite or virus in culture; assay type: cell-based
Method: (§1) Bacterial strains were obtained from American Type Culture Collection. K. pneumoniae strains included BAA-1705 (blaKPC-2, hypermucoid), BAA-2146 (blaNDM-1), BAA-700603 (SHV-18, extended spectrum β-lactamase, ESBL), and BAA-1706 (non-CRE reference strain). E. coli strains included BAA-2340 (blaKPC-2), BAA-2471 (blaNDM-1), and ML35 (non-CRE reference strain).
(§2) Minimum inhibitory concentration (MIC) assays were performed ± 50% heat-inactivated mouse serum using Clinical and Laboratory Standards Institute (CLSI; document M07-A9) protocols. Bacteria (5 × 10^5 CFU/ml) were incubated with antibiotics or peptide for 20 h at 37 °C, and bacterial growth was determined by A620 using a SpectraMax M5e plate reader.

[1] = system: K. pneumoniae 700603 (ESBL); assay: microbe, parasite or virus in culture; assay type: cell-based
Method: as §1, §2

[2] = system: K. pneumoniae BAA-1705 (KPC-2); assay: microbe, parasite or virus in culture; assay type: cell-based; conditions: 20 h, 37 °C
Method: as §1, §2

E. coli ML35 = assay: microbe, parasite or virus in culture; assay type: cell-based; conditions: E. coli ML35, no MDR factor
Method: as §1, §2

K. pneumoniae BAA-1706 = assay: microbe, parasite or virus in culture; assay type: cell-based; conditions: K. pneumoniae BAA-1706, no MDR factor
Method: as §1, §2

[3] = system: K. pneumoniae BAA-2146 (NDM-1); assay: microbe, parasite or virus in culture; assay type: cell-based
Method: as §1, §2

E. coli BAA-2340 (KPC-2) = assay: microbe, parasite or virus in culture; assay type: cell-based; conditions: E. coli BAA-2340, KPC-2
Method: as §1, §2

Kp-1705 = assay: Bacterial burden in Kp-1705 infected mice; assay type: in vivo, BALB/c mice; conditions: 1.25 mg/kg i.p. 1 h p.i.
Method: (§3) BALB/c mice (Jackson Laboratories) 8–10 weeks of age were acclimated (3–5 to a cage for at least 5 days prior to infection) in a thermostatically controlled room with 12 h light/dark cycle. Cryopreserved K. pneumoniae cells were thawed and adjusted to a density of 6–10 × 10^8 CFU/ml, confirmed by plating on trypticase soy agar (TSA) plates. E. coli BAA-2340 was grown to log-phase in trypticase soy broth, pelleted, washed with PBS, and resuspended in PBS at 0.5–1 × 10^9 CFU/ml. Mice were infected by i.p. injection of 2–5 × 10^8 CFU of Kp-1705 or 3–6 × 10^7 CFU of E. coli BAA-2340 using a 28 g needle in a volume of 0.5 ml. Post-infection, mice were observed three times a day for at least 4 days and then daily for 28 days. Mice were euthanized when they became moribund. All experiments used both male and female mice and were repeated at least twice.
Blood, peritoneal lavage fluid, and spleen homogenates were obtained from mice following by CO2 euthanasia. Citrate-anti-coagulated blood was collected by aseptic cardiac puncture. Peritoneal lavage was performed by injecting 3 ml of PBS into the peritoneal cavity, massaging the abdomen, and then collecting fluid aseptically through a minor incision in the abdominal wall. Spleen was surgically removed and homogenized in sterile PBS using Polytron PT10-35 homogenizer. Samples were serially diluted and plated in triplicate on TSA plates, incubated overnight at 37 °C and colonies counted.

[4] = system: Kp-1705 (K. pneumoniae BAA-1705); assay: Kp-1705 bacteremic sepsis, survival; assay type: in vivo, BALB/c mice; conditions: for long term (≥ 28 days) survival: Kp-1705 i.p. in BALB/c mice
Method: as §3

RAW 264.7 macrophages = assay: Phagocytosis assay, RAW 264.7 macrophages with live Kp-1705; assay type: cell-based, mouse; conditions: RAW 264.7 cells, live Kp-1705, MOI 50:1, 0–10 µg/ml peptide, 30 min, 37 °C
Method: Mouse RAW 264.7 macrophages (RAW cells; ATCC, TIB-71) were grown in Dulbecco’s Modified Eagle Medium (DMEM) with 10% heat-inactivated fetal bovine serum (HI-FBS) with 100 U/ml penicillin/streptomycin, and suspended to 2–3 × 10^6 cells/ml in fresh media before use.
Kp-1705 was grown overnight, harvested by centrifugation, washed twice, resuspended in Hank’s Balanced Salt Solution (HBSS), and adjusted to a density of 2.5 × 10^8 CFU/ml. Bacteria were pre-incubated with varied concentrations of MTD12813 at room temperature for 30 min, and incubated (MOI 50:1) with RAW cells (2.5 × 10^6 cell/ml) with orbital shaking at 37 °C for 30 min. Cytospin preparations of 100 µl (2.5 × 10^5 RAW cells/slide) samples were then prepared, fixed with methanol, and stained with hematoxylin and eosin (H & E). Slides were viewed at 100× and 50 RAW cells selected from random fields were manually counted for number of cell associated bacteria. All samples were run in duplicate and experiments performed twice.

[5] = Peptide stability with log-phase Kp-1705 (bacterial proteases); assay type: in vitro ADME, K. pneumoniae; conditions: suspension of log-phase Kp-1705 bacteria, log-phase Kp-1705 (5 × 10^7 CFU/ml), 50 mM HEPES pH 7.4, 37 °C, LC–MS/MS, read-out: MTD12813 found intact
Method: MTD12813 (final concentration of 100 µg/ml) was added to either 90% human EDTA plasma or 90% human serum and incubated at 37 °C for 48 h. Samples were processed by addition of 10% HOAc and 5% ACN (final concentrations) at time 0 and 48 h, and MTD12813 was quantified by C18 RP-HLPC on an Acquity H-Class UPLC with an analytical PDA detector using Empower 3 software (Waters). All samples were performed with technical replicates and analyzed by UPLC in duplicate and the experiment repeated once. […] A time 0 h sample was collected, and the remaining suspension incubated at 37 °C for 24 h. Samples were processed by addition of 5% formic acid/5% acetonitrile, vortexed, and clarified at 22,000×g for 10 min. Supernatant MTD12813 was then quantified by LC–MS/MS as described in PK section above. All samples were performed with technical replicates and analyzed by LC–MS/MS in duplicate.

[6] = 50% heat inactivated mouse serum
[7] = CLSI, 20 h, 37 °C, A620, no serum

CC[C@H](C)[C@@H]1NC(=O)[C@@H]2CSSC[C@H](NC(=O)[C@H]([C@@H](C)CC)NC(=O)[C@@H]3CSSC[C@H](NC1=O)C(=O)N[C@@H](C(C)C)C(=O)NCC(=O)N[C@@H](CCCNC(=N)N)C(=O)NCC(=O)N3)C(=O)N[C@@H](C(C)C)C(=O)N[C@@H](CCCNC(=N)N)C(=O)N[C@@H](CCCNC(=N)N)C(=O)N[C@@H](CCCNC(=N)N)C(=O)N2 [MTD12813] (cyclo(CICVGRGCICVRRR); disulfide 1-10, 3-8)
MIC (E. coli BAA-2471 (NDM-1); [6]): 100 µg/mL (≈ 63.6 µM)
MIC (E. coli BAA-2471 (NDM-1); [7]): 3.13 µg/mL (≈ 1.99 µM)
MIC [1, 6]: > 100 µg/mL
MIC [1, 7]: 6.25 µg/mL (≈ 3.98 µM)
MIC ([2]; CLSI M07-A9, 5 × 10^5 CFU/ml, A620, no serum): 6.25 µg/mL (≈ 3.98 µM)
MIC ([2]; in the presence of 50% heat inactivated mouse serum, A620): > 100 µg/mL
MIC (E. coli ML35; [6]): > 100 µg/mL
MIC (E. coli ML35; [7]): 3.13 µg/mL (≈ 1.99 µM)
MIC (K. pneumoniae BAA-1706; [6]): > 100 µg/mL
MIC (K. pneumoniae BAA-1706; [7]): 3.13 µg/mL (≈ 1.99 µM)
MIC [3, 6]: > 100 µg/mL
MIC [3, 7]: 6.25 µg/mL (≈ 3.98 µM)
MIC (E. coli BAA-2340 (KPC-2); [6]): > 100 µg/mL
MIC (E. coli BAA-2340 (KPC-2); [7]): 6.25 µg/mL (≈ 3.98 µM)
reduction of viable bacteria versus saline, PLF (Kp-1705; 4 h p.i.): 99.5%
reduction of viable bacteria versus saline, blood (Kp-1705; 4 h p.i.): 79.1%
reduction of viable bacteria versus saline, spleen (Kp-1705; 4 h p.i.): 70.4%
reduction of bacterial burden, PLF (Kp-1705; 24 h): 99.8%
reduction of bacterial burden, blood (Kp-1705; 24 h): 93.8%
reduction of bacterial burden, spleen homogenates (Kp-1705; 24 h): 94.4%
long term (≥ 28 days) survival ([4]; single i.p. dose 1.25 mg/kg 1 h p.i.): 100%
long term (≥ 28 days) survival ([4]; single i.p. dose 5 mg/kg 1 h p.i.): 100%
long term survival, timing of treatment ([4]; Kp-1705 i.p., single i.p. 1.25 mg/kg 1 h after infection (+1 h)): survived long term
long term survival, timing of treatment ([4]; Kp-1705 i.p., single i.p. 1.25 mg/kg 1 h before infection (−1 h)): survived long term
long term survival, timing of treatment ([4]; Kp-1705 i.p., single i.p. 1.25 mg/kg 3 h after infection (+3 h), P = 3.9 × 10^–3): half
long term survival, timing of treatment ([4]; Kp-1705 i.p., single i.p. 1.25 mg/kg 3 h prior to infection (−3 h)): nearly equivalent efficacy
survival benefit versus saline ([4]; Kp-1705 i.p., single i.p. dose 0.5 mg/kg 1 h p.i., P = 1.1 × 10^–3): survival benefit was still statistically significant
concentration of maximal phagocytic activity (RAW 264.7 macrophages): 0.313 µg/mL
remaining at 24 h, 1.25 µg/ml [5]: 72.4 ± 0.93%
